The text below walks through data of PubChem BioAssay AID623927 (Vanderbilt Specialized Chemistry Center, 2012).

The target in experiment [1] is Sodium-dependent serotonin transporter (Homo sapiens) (UniProt P31645). As to the kind of experiment: PubChem AID 623927. The conditions noted are these: Ricerca radioligand binding panel, 10 uM, % inhibition; serotonin transporter SERT binding; stronger effect = higher value.
A short description of a further experiment: PubChem AID 623927. The note with it: Ricerca radioligand binding panel, 10 uM, % inhibition, stronger effect = higher value.
The target in experiment [2] is 5-hydroxytryptamine receptor 1A (Homo sapiens) (UniProt P08908). As to the kind of experiment: PubChem AID 623927. The conditions noted are these: Ricerca radioligand binding panel, 10 uM, % inhibition; serotonin 5-HT1A binding; stronger effect = higher value.
Experiment [3] deals with Alpha-1A adrenergic receptor (Homo sapiens) (UniProt P35348). As to the kind of experiment: PubChem AID 623927. The conditions noted are these: Ricerca radioligand binding panel, 10 uM, % inhibition; adrenergic alpha1A binding; stronger effect = higher value.
Experiment [4] deals with norepinephrine transporter (NET) [Homo sapiens]. Briefly: PubChem AID 623927. The conditions noted are these: Ricerca radioligand binding panel, 10 uM, % inhibition; stronger effect = higher value.
For experiment [5], the target named is Sodium-dependent dopamine transporter (Homo sapiens) (UniProt Q01959). As to the kind of experiment: PubChem AID 623927. The conditions noted are these: Ricerca radioligand binding panel, 10 uM, % inhibition; dopamine transporter DAT binding; stronger effect = higher value.
Experiment [6] addresses Voltage-gated inwardly rectifying potassium channel KCNH2 (Homo sapiens) (UniProt Q12809). As to the kind of experiment: PubChem AID 623927. The conditions noted are these: Ricerca radioligand binding panel, 10 uM, % inhibition; hERG channel binding; stronger effect = higher value. In general terms: hERG is a cardiac potassium channel; its block is linked to QT prolongation.
In experiment [7] the target is Adenosine receptor A1 (Homo sapiens) (UniProt P30542). Briefly: PubChem AID 623927. The conditions noted are these: Ricerca radioligand binding panel, 10 uM, % inhibition; adenosine A1 binding; stronger effect = higher value.
Experiment [8] deals with Sigma non-opioid intracellular receptor 1 (Homo sapiens) (UniProt Q99720). As to the kind of experiment: PubChem AID 623927. The conditions noted are these: Ricerca radioligand binding panel, 10 uM, % inhibition; sigma 1 receptor binding; stronger effect = higher value.

Take `O=C(Nc1cccc(Cl)c1)c1ccccn1`: the inhibition in experiment [1] was 12%; in “PubChem AID 623927” (NMDA agonist site binding), 15%; in “PubChem AID 623927” (NMDA phencyclidine site binding), 15%; in “PubChem AID 623927” (phorbol ester binding), 21%; in the experiment “PubChem AID 623927” (rolipram site (PDE4) binding) it was 17%; in the experiment “PubChem AID 623927” (sigma 2 receptor binding), 15%. Moreover, the inhibition in experiment [2] was 16%; in experiment [3], 16%; in experiment [5] it was 31%; in experiment [6], 0%; in [7] it was 17%; in experiment [8], 27%. Also, the inhibition of NET radioligand binding in [4] was 80%.

As a reminder, the inhibition is how much of the control response was suppressed.
